Reference: US20090319044A1, “Methods and Compositions for Improving the Incorporation of Orthopaedic and Orthodontic Implants” (priority 2006, published 2009)

Experiments:
MC3T3 cells = assay: Cytokine gene expression after A23187 treatment (Quantitative-RT PCR); assay type: cell-based; settings: 1 to 6 hours after stimulation, relative to controls
Experimental: Wear particles and calcium signaling induce cytokine expression in macrophages and osteoblasts. Cytokine gene expression was measured following A23187 treatment in MC3T3 cells by Quantitative-RT PCR. RNA was isolated from the cells using an RNeasy Mini Kit (Qiagen, Valencia, Calif.), and Quantitative-RT PCR was performed using a SYBR Green master mix (Roche, Ind.).

[1] = test system: polyethylene particle-induced osteolysis rodent femur model; assay: Second in vivo study: micro-CT periprosthetic bone area; parameters: species or system Sprague-Dawley rats; settings: HA-coated UHMWPE nail soaked in 50 μM zoledronate; right femora; times pooled; p<0.0001 vs control
Text: (§1) Experimental Design and Surgical Procedure. In this example, a polyethylene particle-induced osteolysis rodent femur model was used to examine the advantages of using a HA-zoledronate composite on the implant surface for osseous integration and implant stability in the presence of UHMWPE particles. Two critical parameters were examined, namely, peri-implant bone quality (osteolysis) and osseointegration (implant stability).
The 32 rats were divided into two study groups, each composed of 16 rats. Sixteen randomly selected rats served as a control group, which received HA-coated nails. […] Eight rats in each group were sacrificed at 6 weeks following the intramedullary nailing of HA-coated implants and another 8 rats from each group were sacrificed 6 months following the surgery. […]
(§2) In the control group, a radiolucent UHMWPE intramedullary nail, which was coated with HA, was implanted into the right distal femur in a retrograde manner, while a HA-coated titanium intramedullary nail was implanted into the left distal femur. […] Activity level, food intake, the condition of the surgical wound, and clinical signs of infection were monitored daily. […]
Micro-computed Tomography (micro-CT). The right femura with UHMWPE pins were imaged using a quantitative CT (Stratec XCT-3000), running the XCT Series software, version 5.21 (Stratec Medizintechnik GmbH, Pforzheim, Germany). […]

[2] = test system: rodent osteolysis model (UHMWPE wear debris, femur); assay: First in vivo study: pull-out strength testing of titanium pins; parameters: species or system rat; settings: 24 weeks
Text: (§3) More particularly, sterile ultrahigh molecular weight polyethylene (UHMWPE) wear debris particles (0.5 cc, 0.1-3 micron particle size) were introduced into the intramedullary cavity of bilateral femurs of 8 rats, which served as the control group in this example. The particles were introduced after reaming the femurs with an 18 gauge needle at the knee joint. Sterile wear debris particles were used in this example to stimulate a wear debris reaction and promote osteolysis. Hydroxyapatite-coated plastic pins and hydroxyapatite-coated titanium pins (1.5 mm×20 mm, Stryker, Kalamazoo, Mich.) were then inserted into the intramedullary canal of the right femur and left femur, respectively.
(§4) The test group, which consisted of 8 rates, also had 0.5 cc of sterile UHMWPE wear debris particles introduced into the femoral intramedullary canal after reaming with an 18 gauge needle at the knee joint.
Incorporation of the implants by the host bone was evaluated by “pull-out strength testing” of the titanium pins (left femurs) (MTS 858 Bionix, MTS Systems Corporation, Minneapolis, Minn.). Such “pull-out strength testing” measures the amount of force (i.e., pull force) that must be applied to displace (or remove) the implant from the bone.

[3] = test system: polyethylene particle-induced osteolysis rodent femur model; assay: Second in vivo study: dual energy X-ray absorptiometry (DXA); parameters: species or system Sprague-Dawley rats; bone area (DXA): unit not given here; settings: HA-coated nail soaked in 50 μM zoledronate, 6 weeks and 6 months pooled
Text: as §1
All procedures involving animals were approved by the Institutional Animal Care and Use Committee in accordance with the Association for the Assessment and Accreditation of Laboratory Animal Care guidelines (Columbia University Animal Proctocol AC-AAM5306). In this example, a rodent femur intramedullary nailing model was used with UHMWPE wear debris particles instilled into the intramedullary canal after reaming the femur to stimulate a wear debris reaction. Thirty-two six-month-old adult male Sprague-Dawley rats (weight, 400-500 gm) were purchased (Charles Laboratory, Cambridge, Mass.).
(§5) The 32 rats were divided into two study groups, each composed of 16 rats. Sixteen randomly selected rats served as a control group, which received HA-coated nails. […] Eight rats in each group were sacrificed at 6 weeks following the intramedullary nailing of HA-coated implants and another 8 rats from each group were sacrificed 6 months following the surgery.
After induction of general anesthesia using ketamine (60 mg/kg) and xylazine (5 mg/kg), hair over the knee was removed with a clipper. Right and left knee regions were prepared with 70% alcohol and 1% Betadine solution. A one centimeter longitudinal skin incision was made over the anterior aspect of the distal femur. […]
as §2

[4] = test system: RAW 264.7 mouse macrophage-like cells (osteoclast precursors); assay: Cell death assay (annexin V-FITC / propidium iodide flow cytometry); assay type: cell-based; settings: 50 μM zoledronate, 24 hours
Experimental: MC3T3 cells, which are well-established mouse calvarial cells of osteoblastic lineage, and RAW 264.7 mouse macrophage-like cells, which are well-known to form osteoclasts, were purchased from the American Type Culture Collection and Tissue (Manassas, Va.). MC3T3 and RAW 264.7 cells were grown in Dulbecco's Modified Eagle Medium supplemented with 10% fetal bovine serum, 100 μ/mL penicillin, […] streptomycin, and 0.1% fungizone (amphotericin B). The cells were kept at 37° C. in a humidified atmosphere of 5% CO2 and 95% air.
Cell number was measured, and the cells were centrifuged and resuspended in binding buffer (A.G. Scientific, San Diego, Calif.) to a final cell density of 5×10^5 cells/mL. […] of annexin V-FITC (A.G. Scientific, San Diego, Calif.) was added to […] of cell suspension and incubated for 10 minutes. The cells were centrifuged, washed with PBS and resuspended again in […] of binding buffer. […] of 20 mg/mL propidium iodide (A.G. Scientific, San Diego, Calif.) was added to the cell suspension, and flow cytometry was performed using a FACS Calibur (Becton Dickson, Franklin Lakes, N.J.). Monoparametric cytograms of annexin V-FITC fluorescence (FL1) versus number of events were created using the CellQuest program gating for living cells and excluding dead cells on the basis of their propidium iodide uptake.

[5] = test system: polyethylene particle-induced osteolysis rodent femur model; assay: Second in vivo study: biomechanical pull-out testing; parameters: species or system Sprague-Dawley rats
Text: as §1, §5
After induction of general anesthesia using ketamine (60 mg/kg) and xylazine (5 mg/kg), hair over the knee was removed with a clipper. Right and left knee regions were prepared with 70% alcohol and 1% Betadine solution. A one centimeter longitudinal skin incision was made over the anterior aspect of the distal femur. A medial parapatellar approach was made to expose the intercondylar notch with the knee in flexion. An entry hole was made with a 18-gauge needle. The distal rat femora were reamed with an 18-gauge needle, and then Ceridust® UHMWPE particles (0.1 mL of 50 vol. %; 0.1 to 3 micron in size; Clariant GmbH, Germany) were introduced into the intradmedullary canal prior to implantation.
In the control group, a radiolucent UHMWPE intramedullary nail, which was coated with HA, was implanted into the right distal femur in a retrograde manner, while a HA-coated titanium intramedullary nail was implanted into the left distal femur. The joint capsule was repaired using a 2-0 Vicryl® suture (Johnson & Johnson, New Brunswick, N.J.). The skin was repaired with metal staples. Rats were allowed weight bearing as tolerated in their cages, while subcutaneous injections of buprenorphine (0.05 mg/kg) were given once a day for two post-operative days. Activity level, food intake, the condition of the surgical wound, and clinical signs of infection were monitored daily.
The purpose of using the UHMWPE nail was to minimize imaging artifacts inherent in metal implants for a more accurate analysis of dual energy x-ray absorptiometry (DXA) and microcomputed tomography (micro-CT) analyses, which are describe below. The metallic nail was used for biomechanical testing. The intramedullary nails, 1.4 mm in diameter and 20 mm in length, were custom-made for this study (Stryker, Mahwah, N.J.).
Biomechanical Testing. The left femora of both the 6-week and 6-month control and treatment groups were subjected to biomechanical testing following the imaging studies described herein. […]

[6] = test system: rodent osteolysis model (UHMWPE wear debris, femur); assay: First in vivo study: Faxitron and micro-CT imaging of osteolysis around implants; parameters: species or system rat; settings: 24 weeks, vs HA-coated control
Text: as §3, §4
The rats of the test and control groups were sacrificed at 24 weeks following insertion of the pins and the femurs were retrieved. Faxitron radiographs (Faxitron, Wheeling, Ill.) of the femurs taken from the test and control rats were obtained. […] The femurs with plastic pin implants (the right femurs) were imaged by micro-CT (Stratec XCT-3000, Stratec Medizintechnik GmbH, Pforzheim, Germany).

[7] = HA-coated titanium nail soaked in 50 μM zoledronate, left femora, times pooled, p<0.0001 vs control

Compound | COX-2 expression (MC3T3 cells) | TNF-alpha expression (MC3T3 cells) | amount of bone mass in the periprosthetic area (micro-CT) [1] [mm^2] | peak force to extract the titanium pin implants ([2]; zoledronate-treated HA-coated titanium pins vs control, p<0.0001) | pullout energy ([2]; zoledronate-treated HA-coated titanium pins, p=0.0085 vs control) [N-m] | bone mineral content (DXA) ([3]; p<0.0001 vs control) [g] | bone mineral density (DXA) ([3]; p<0.0001 vs control) [g/cm^2] | bone area (DXA) ([3]; p=0.1222 vs control) | apoptosis in RAW cells [4] [%] | increase in total energy to pull-out over control ([5]; 6-month group) [%] | increase in total energy to pull-out over control ([5]; 6-weeks group) [%] | average peak pullout force [5, 7] [N] | energy required to completely pull the pin out of the bone [5, 7] [N-mm] | osteolysis around plastic implants (micro-CT) ([6]; HA-coated plastic pins presoaked in zoledronate 15 minutes, right femur) | osteolysis around titanium implant (Faxitron radiographs) ([6]; HA-coated titanium pins presoaked in zoledronate 15 minutes, left femur)
CNc1ccc2oc(C[C@H]3O[C@@]4(CC[C@H]3C)O[C@H]([C@H](C)C(=O)c3ccc[nH]3)[C@H](C)C[C@H]4C)nc2c1C(=O)O [A23187] | increase | increase | – | – | – | – | – | – | – | – | – | – | – | – | –
zoledronate | – | – | 2.388±0.960 | statistically higher | 5.71±3.42 | 0.417 ± 0.064 | 0.328±0.036 | 1.265±0.081 | 100 | 170.7 | 542.8 | 241.0±95.1 | 521.6±293.8 | not around such implants in the test rats | not around the titanium implants in the test rats
